Test results taken from patent publication US9757380B2 (Southern Research Institute, priority 2007, dated 2017).

Key:
Format in all cases: in vivo, mice
NCI-H460 NSCL (lung) = test: NCI-H460 NSCL lung xenograph model, clofarabine combined with radiation; conditions: clofarabine 30 mg/kg/dose, ip, d. 8-17, radiation 3 Gy
Source text: (§1) Xenograph models including DU-145 (prostate), NCI-H460 NSCL (lung), SF-295 CNS (glioblastoma), SR475HN (head and neck), PANC-1 (pancreatic), and HCT-116 (colon) are employed to study the effect of compounds according to the instant disclosure combined with radiation therapy. Mice are implanted with tumor fragments subcutaneously from an in vivo passage and the tumors are allowed to grow. Mice with tumors in a designated size range are selected for the studies.

HCT-116 (colon) = test: HCT-116 colon xenograph model, clofarabine combined with radiation; conditions: clofarabine 30mg/kg/dose, ip, d. 13-24, radiation 2 Gy
Source text: as §1

[1] = test system: SF-295 CNS (glioblastoma); test: SF-295 CNS glioblastoma xenograph model, clofarabine combined with radiation; conditions: clofarabine 30 mg/kg/dose, ip, d. 8-17, radiation 3 Gy, d. 8, 11, 14, 17
Source text: as §1

SR475HN (head and neck) = test: SR475HN head and neck xenograph model, clofarabine combined with radiation; conditions: SR475 head & neck, clofarabine 30 mg/kg/dose, ip, d. 19-30, radiation 2 Gy, d. 19-23, 26-30
Source text: as §1

PANC-1 (pancreatic) = test: PANC-1 pancreatic xenograph model, clofarabine combined with radiation; conditions: clofarabine 30 mg/kg/dose, ip, d. 12-23, radiation 2 Gy
Source text: as §1

DU-145 (prostate) = test: DU-145 prostate xenograph model, clofarabine combined with radiation; conditions: clofarabine 30 mg/kg/dose, ip, d. 13-24, radiation 2 Gy
Source text: as §1

tumor models = test: Xenograph models combined with radiation therapy (overall statement); conditions: compared with clofarabine
Source text: as §1

| SMILES | Tumor-Free Survivors/Total (NCI-H460 NSCL (lung); d. 8, 11, 14, 17) | Growth Delay (T-C, days) (NCI-H460 NSCL (lung); d. 8, 11, 14, 17, based on time to 3 tumor doublings) | Tumor-Free Survivors/Total (HCT-116 (colon); d. 13-17, 20-24) | Growth Delay (T-C, days) (HCT-116 (colon); d. 13-17, 20-24, based on 3 tumor doublings) | Growth Delay (T-C, days) [1] | Tumor-Free Survivors/Total [1] | Tumor-Free Survivors/Total (SR475HN (head and neck)) | Growth Delay (T-C, days) (SR475HN (head and neck); based on 2 tumor doublings) | Tumor-Free Survivors/Total (PANC-1 (pancreatic); d. 12-16, 19-23) | Growth Delay (T-C, days) (PANC-1 (pancreatic); d. 12-16, 19-23, based on 2 tumor doublings) | Tumor-Free Survivors/Total (DU-145 (prostate); d. 13-17, 20-24) | Growth Delay (T-C, days) (DU-145 (prostate); d. 13-17, 20-24, combination: clofarabine first, radiation 1 hour later) | radiosensitizing capacity (tumor models) |
| --- | --- | --- | --- | --- | --- | --- | --- | --- | --- | --- | --- | --- | --- |
| Nc1nc(Cl)nc2c1ncn2[C@@H]1O[C@H](CO)[C@@H](O)[C@@H]1F [Clofarabine] | 0/6 | 4.6 days | 0/6 | 24.2 days | -0.8 days | 0/6 | 0/6 | 18.2 days | 0/6 | 17.2 days | 0/6 | 4.3 days |  |
| Nc1ccn([C@@H]2O[C@H](CO)[C@@H](O)C2(F)F)c(=O)n1 [gemcitabine] |  |  |  |  |  |  |  |  |  |  |  |  | tracked with the clofarabine results |
